From US11578056B2, “Solid forms comprising (S)-2-(2,6-dioxopiperidin-3-yl)-4-((2-fluoro-4-((3-morpholinoazetidin-1-yl)methyl)benzyl)amino)isoindoline-1,3-dione and salts thereof, and compositions comprising and methods of using the same” (Celgene Corporation, priority 2019, dated 2023)

Tests used:
Assay in all cases: Hematological cell line viability/apoptosis flow cytometry assay
Assay type in all cases: cell-based
OCI-LY10 cell line = settings: OCI-LY10 (DLBCL ABC); 120 h
How it was run: (§1)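 384-well format; serial dilutions 0.00015–10 μM, DMSO 0.1% v/v, 5 days. Annexin V/DRAQ7 flow readout. Viability normalized to DMSO → IC50, Emax, AUC; apoptosis (early + late) vs DMSO → EC50, Ymax, AUC.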

RL cell line = settings: RL (FL); 120 h
How it was run: as §1

DOHH2 cell line = settings: DOHH2 (FL); 120 h
How it was run: as §1

Farage cell line = settings: Farage (DLBCL PMBL); 120 h
How it was run: as §1

HG3 cell line = settings: HG3 (CLL), 120 h
How it was run: as §1

U-2940 cell line = settings: U-2940 (DLBCL PMBL); 120 h
How it was run: as §1

OCI-LY19 cell line = settings: OCI-LY19 (DLBCL GCB); 120 h
How it was run: as §1

Karpas-299 cell line = settings: Karpas-299 (TCL), 120 h
How it was run: as §1

WSU-DLCL2 cell line = settings: WSU-DLCL2 (DLBCL GCB); 120 h
How it was run: as §1

Mino cell line = settings: Mino (MCL); 120 h
How it was run: as §1

CI cell line = settings: CI (CLL), 120 h
How it was run: as §1

KARPAS-1106P cell line = settings: KARPAS-1106P (DLBCL PMBL); 120 h
How it was run: as §1

SU-DHL-6 cell line = settings: SU-DHL-6 (DLBCL GCB); 120 h
How it was run: as §1

ROS-50 cell line = settings: ROS-50 (DLBCL), 120 h
How it was run: as §1

**Q.** Which results are given for `O=C1CC[C@H](N2C(=O)c3cccc(NCc4ccc(CN5CC(N6CCOCC6)C5)cc4F)c3C2=O)C(=O)N1` [Compound 1, (S)-2-(2,6-dioxopiperidin-3-yl)-4-((2-fluoro-4-((3-morpholinoazetidin-1-yl)methyl)benzyl)amino)isoindoline-1,3-dione]?
**A.** % Viable Cells AUC (OCI-LY10 cell line): 125.3; % Viable Cells Emax (OCI-LY10 cell line): 10.16%; Apoptosis AUC (OCI-LY10 cell line): 188.9; Apoptosis Ymax (OCI-LY10 cell line): 22.31%; % Viable Cells AUC (RL cell line): 234.8; % Viable Cells Emax (RL cell line): 21.55%; Apoptosis AUC (RL cell line): 115.9; Apoptosis Ymax (RL cell line): 13.93%; % Viable Cells AUC (DOHH2 cell line): 6.902; % Viable Cells Emax (DOHH2 cell line): 0.2066%; Apoptosis AUC (DOHH2 cell line): 923.9; Apoptosis Ymax (DOHH2 cell line): 95.1%; % Viable Cells AUC (Farage cell line): 10.16; % Viable Cells Emax (Farage cell line): 0.7936%; Apoptosis AUC (Farage cell line): 728.7; Apoptosis Ymax (Farage cell line): 84.17%; % Viable Cells AUC (HG3 cell line): 676.2; % Viable Cells Emax (HG3 cell line): 59.58%; Apoptosis AUC (HG3 cell line): 131.5; Apoptosis Ymax (HG3 cell line): 14.28%; EC50 (HG3 cell line; HG-3): 111 nM; IC50 (HG3 cell line; HG-3, read-out: % Viable Cells IC50): > 10000 nM; % Viable Cells AUC (U-2940 cell line): 70.43; % Viable Cells Emax (U-2940 cell line): 5.192%; Apoptosis AUC (U-2940 cell line): 792.5; Apoptosis Ymax (U-2940 cell line): 82.19%; % Viable Cells AUC (OCI-LY19 cell line): 72.49; % Viable Cells Emax (OCI-LY19 cell line): 3.228%; Apoptosis AUC (OCI-LY19 cell line): 706.2; Apoptosis Ymax (OCI-LY19 cell line): 80.91%; EC50 (Karpas-299 cell line; Homo sapiens): 168000 nM; IC50 (Karpas-299 cell line; Homo sapiens, read-out: % Viable Cells IC50): 12 nM; % Viable Cells AUC (Karpas-299 cell line): 283.7; % Viable Cells Emax (Karpas-299 cell line): 8.43%; Apoptosis AUC (Karpas-299 cell line): 14.51; Apoptosis Ymax (Karpas-299 cell line): 8.0%; % Viable Cells AUC (WSU-DLCL2 cell line): 36.7; % Viable Cells Emax (WSU-DLCL2 cell line): 1.387%; Apoptosis AUC (WSU-DLCL2 cell line): 858.9; Apoptosis Ymax (WSU-DLCL2 cell line): 92.1%; % Viable Cells AUC (Mino cell line): 62.67; % Viable Cells Emax (Mino cell line): 5.638%; Apoptosis AUC (Mino cell line): 968.2; Apoptosis Ymax (Mino cell line): 97.04%; % Viable Cells AUC (CI cell line): 603.9; % Viable Cells Emax (CI cell line): 53.58%; Apoptosis AUC (CI cell line): 123.2; Apoptosis Ymax (CI cell line): 13.01%; EC50 (CI cell line): 22.9 nM; IC50 (CI cell line; read-out: % Viable Cells IC50): 9700 nM; % Viable Cells AUC (KARPAS-1106P cell line): 22.22; % Viable Cells Emax (KARPAS-1106P cell line): 0.1698%; Apoptosis AUC (KARPAS-1106P cell line): 885.2; Apoptosis Ymax (KARPAS-1106P cell line): 97.08%; % Viable Cells AUC (SU-DHL-6 cell line): 19.94; % Viable Cells Emax (SU-DHL-6 cell line): 0.2469%; Apoptosis AUC (SU-DHL-6 cell line): 920.7; Apoptosis Ymax (SU-DHL-6 cell line): 95.92%; % Viable Cells AUC (ROS-50 cell line): 762.1; % Viable Cells Emax (ROS-50 cell line): 65.57%; Apoptosis AUC (ROS-50 cell line): 87.92; Apoptosis Ymax (ROS-50 cell line): 10.9%; EC50 (ROS-50 cell line): 335 nM; IC50 (ROS-50 cell line; read-out: % Viable Cells IC50): > 10000 nM
